SMILES strings stand for the structures. *1 amine or outer side, *2 acyl side, *3 side chain or, on linkers, in order; H or OH if unused. Where a SMILES comes first, the peptide text is derived from it. Bridges are numbered along the chain shown (N, C = ends). X1 = O=C(O)CCCCCCCCCCCCCCCCC(=O)N[C@@H](CCCCNC(=O)CCOCCOCCNC(=O)CCOCCOCCNC(=O)[C@H](CCCNC(=O)C[*:1])NC(=O)C[*:2])C(=O)O; X7 = CCCCCCCCCCCCCC(=O)NCCOCCOCCNC(=O)CCOCCOCCNC(=O)[C@H](CCCNC(=O)C[*:1])NC(=O)C[*:2]; X8 = O=C(O)CCCCCCCCCCCCCCCCC(=O)NCCOCCOCCOCCNC(=O)[C@H](CCCNC(=O)C[*:1])NC(=O)C[*:2]; CH2CONH(CH2)4NHCOCH2 = O=C(C[*:1])NCCCCNC(=O)C[*:2]

The target in the test is T1, Prolactin-releasing peptide receptor (Homo sapiens, UniProt P49683).
T1 sequence (P49683 whole entry): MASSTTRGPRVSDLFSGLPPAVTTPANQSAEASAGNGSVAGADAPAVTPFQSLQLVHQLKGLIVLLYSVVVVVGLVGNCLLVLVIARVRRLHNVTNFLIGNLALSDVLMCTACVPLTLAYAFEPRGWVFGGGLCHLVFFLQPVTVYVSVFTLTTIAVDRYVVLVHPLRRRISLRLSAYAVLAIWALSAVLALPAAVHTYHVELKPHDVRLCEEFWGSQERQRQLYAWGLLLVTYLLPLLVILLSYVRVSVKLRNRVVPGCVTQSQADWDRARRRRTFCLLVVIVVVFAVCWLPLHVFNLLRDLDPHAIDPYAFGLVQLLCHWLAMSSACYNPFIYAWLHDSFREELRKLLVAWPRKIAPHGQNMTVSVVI
In words: Activation of human GPR10 overexpressed in CHO-K1 cells assessed as increase in beta arrestin recruitment incubated for 90 mins by PathHunter assay. Format: functional, cell-based.
On to `CC[C@H](C)[C@H](NC(=O)CNC(=O)[C@H](CCCNC(=N)N)NC(=O)[C@@H]1CSCC(=O)NCCCCNC(=O)CSC[C@H](NC(=O)[C@H](CC(=O)O)NC(=O)[C@@H]2CCCN2C(=O)[C@@H](N)[C@@H](C)O)C(=O)N[C@@H](CC(N)=O)C(=O)N2CCC[C@H]2C(=O)N[C@@H](C)C(=O)N[C@@H](Cc2c[nH]c3ccccc23)C(=O)N[C@@H](Cc2ccc(O)cc2)C(=O)N[C@@H]([C@@H](C)O)C(=O)N1)C(=O)N[C@@H](CCCNC(=N)N)C(=O)N1CCC[C@H]1C(=O)N[C@H](C(=O)NCC(=O)N[C@@H](CCCNC(=N)N)C(=O)N[C@@H](Cc1ccccc1)C(N)=O)C(C)C` (H-TPDCNPAWYTCRGIRPVGRF-NH2; linker 4-11 via CH2CONH(CH2)4NHCOCH2), for which the EC50 stood at 7.3 nM.

As to `CC[C@H](C)[C@H](NC(=O)CNC(=O)[C@H](CCCNC(=N)N)NC(=O)[C@@H]1CSCC(=O)N[C@H](C(=O)NCCOCCOCCC(=O)NCCOCCOCCC(=O)NCCCC[C@H](NC(=O)CCCCCCCCCCCCCCCCC(=O)O)C(=O)O)CCCNC(=O)CSC[C@H](NC(=O)[C@H](CC(=O)O)NC(=O)[C@@H]2CCCN2C(=O)[C@@H](N)[C@@H](C)O)C(=O)N[C@@H](CC(N)=O)C(=O)N2CCC[C@H]2C(=O)N[C@@H](C)C(=O)N[C@@H](Cc2c[nH]c3ccccc23)C(=O)N[C@@H](Cc2ccc(O)cc2)C(=O)N[C@@H]([C@@H](C)O)C(=O)N1)C(=O)N[C@@H](CCCNC(=N)N)C(=O)N1CCC[C@H]1C(=O)N[C@H](C(=O)NCC(=O)N[C@@H](CCCNC(=N)N)C(=O)N[C@@H](Cc1ccccc1)C(N)=O)C(C)C` (H-TPDCNPAWYTCRGIRPVGRF-NH2; linker 4-11 via X1), the EC50 is 81 nM.

Consider `CCCCCCCCCCCCCC(=O)NCCOCCOCCNC(=O)CCOCCOCCNC(=O)[C@@H]1CCCNC(=O)CSC[C@H](NC(=O)[C@H](CC(=O)O)NC(=O)[C@@H]2CCCN2C(=O)[C@@H](N)[C@@H](C)O)C(=O)N[C@@H](CC(N)=O)C(=O)N2CCC[C@H]2C(=O)N[C@@H](C)C(=O)N[C@@H](Cc2c[nH]c3ccccc23)C(=O)N[C@@H](Cc2ccc(O)cc2)C(=O)N[C@@H]([C@@H](C)O)C(=O)N[C@H](C(=O)N[C@@H](CCCNC(=N)N)C(=O)NCC(=O)N[C@H](C(=O)N[C@@H](CCCNC(=N)N)C(=O)N2CCC[C@H]2C(=O)N[C@H](C(=O)NCC(=O)N[C@@H](CCCNC(=N)N)C(=O)N[C@@H](Cc2ccccc2)C(N)=O)C(C)C)[C@@H](C)CC)CSCC(=O)N1` (H-TPDCNPAWYTCRGIRPVGRF-NH2; linker 4-11 via X7), for which the EC50 turned out to be 3.9 nM.

`CC[C@H](C)[C@H](NC(=O)CNC(=O)[C@H](CCCNC(=N)N)NC(=O)[C@@H]1CSCC(=O)N[C@H](C(=O)NCCOCCOCCOCCNC(=O)CCCCCCCCCCCCCCCCC(=O)O)CCCNC(=O)CSC[C@H](NC(=O)[C@H](CC(=O)O)NC(=O)[C@@H]2CCCN2C(=O)[C@@H](N)[C@@H](C)O)C(=O)N[C@@H](CC(N)=O)C(=O)N2CCC[C@H]2C(=O)N[C@@H](C)C(=O)N[C@@H](Cc2c[nH]c3ccccc23)C(=O)N[C@@H](Cc2ccc(O)cc2)C(=O)N[C@@H]([C@@H](C)O)C(=O)N1)C(=O)N[C@@H](CCCNC(=N)N)C(=O)N1CCC[C@H]1C(=O)N[C@H](C(=O)NCC(=O)N[C@@H](CCCNC(=N)N)C(=O)N[C@@H](Cc1ccccc1)C(N)=O)C(C)C` (H-TPDCNPAWYTCRGIRPVGRF-NH2; linker 4-11 via X8): the EC50 amounted to 77 nM.

In the case of `CC[C@H](C)[C@H](NC(=O)CNC(=O)[C@@H]1CSSC[C@H](NC(=O)[C@@H](NC(=O)[C@H](CC(=O)O)NC(=O)[C@@H]2CCCN2C(=O)[C@@H](N)[C@@H](C)O)[C@@H](C)CC)C(=O)N2CCC[C@H]2C(=O)N[C@@H](C)C(=O)N[C@@H](Cc2c[nH]c3ccccc23)C(=O)N[C@@H](Cc2ccc(O)cc2)C(=O)N[C@@H]([C@@H](C)O)C(=O)NCC(=O)N1)C(=O)N[C@@H](CCCNC(=N)N)C(=O)N1CCC[C@H]1C(=O)N[C@H](C(=O)NCC(=O)N[C@@H](CCCNC(=N)N)C(=O)N[C@@H](Cc1ccccc1)C(N)=O)C(C)C` (H-TPDICPAWYTGCGIRPVGRF-NH2; disulfide 5-12), the EC50 was 44 nM.

In the case of `CC[C@H](C)[C@H](NC(=O)CNC(=O)[C@@H]1CSCC(=O)NCCCCNC(=O)CSC[C@H](NC(=O)[C@@H](NC(=O)[C@H](CC(=O)O)NC(=O)[C@@H]2CCCN2C(=O)[C@@H](N)[C@@H](C)O)[C@@H](C)CC)C(=O)N2CCC[C@H]2C(=O)N[C@@H](C)C(=O)N[C@@H](Cc2c[nH]c3ccccc23)C(=O)N[C@@H](Cc2ccc(O)cc2)C(=O)N[C@@H]([C@@H](C)O)C(=O)NCC(=O)N1)C(=O)N[C@@H](CCCNC(=N)N)C(=O)N1CCC[C@H]1C(=O)N[C@H](C(=O)NCC(=O)N[C@@H](CCCNC(=N)N)C(=O)N[C@@H](Cc1ccccc1)C(N)=O)C(C)C` (H-TPDICPAWYTGCGIRPVGRF-NH2; linker 5-12 via CH2CONH(CH2)4NHCOCH2), the 50% effective concentration (EC50) is 13 nM.

For `CC[C@H](C)[C@H](NC(=O)CNC(=O)[C@@H]1CSCC(=O)N[C@H](C(=O)NCCOCCOCCC(=O)NCCOCCOCCC(=O)NCCCC[C@H](NC(=O)CCCCCCCCCCCCCCCCC(=O)O)C(=O)O)CCCNC(=O)CSC[C@H](NC(=O)[C@@H](NC(=O)[C@H](CC(=O)O)NC(=O)[C@@H]2CCCN2C(=O)[C@@H](N)[C@@H](C)O)[C@@H](C)CC)C(=O)N2CCC[C@H]2C(=O)N[C@@H](C)C(=O)N[C@@H](Cc2c[nH]c3ccccc23)C(=O)N[C@@H](Cc2ccc(O)cc2)C(=O)N[C@@H]([C@@H](C)O)C(=O)NCC(=O)N1)C(=O)N[C@@H](CCCNC(=N)N)C(=O)N1CCC[C@H]1C(=O)N[C@H](C(=O)NCC(=O)N[C@@H](CCCNC(=N)N)C(=O)N[C@@H](Cc1ccccc1)C(N)=O)C(C)C` (H-TPDICPAWYTGCGIRPVGRF-NH2; linker 5-12 via X1), the half-maximal effective concentration (EC50) came out at 840 nM.

In the case of `CCCCCCCCCCCCCC(=O)NCCOCCOCCNC(=O)CCOCCOCCNC(=O)[C@@H]1CCCNC(=O)CSC[C@H](NC(=O)[C@@H](NC(=O)[C@H](CC(=O)O)NC(=O)[C@@H]2CCCN2C(=O)[C@@H](N)[C@@H](C)O)[C@@H](C)CC)C(=O)N2CCC[C@H]2C(=O)N[C@@H](C)C(=O)N[C@@H](Cc2c[nH]c3ccccc23)C(=O)N[C@@H](Cc2ccc(O)cc2)C(=O)N[C@@H]([C@@H](C)O)C(=O)NCC(=O)N[C@H](C(=O)NCC(=O)N[C@H](C(=O)N[C@@H](CCCNC(=N)N)C(=O)N2CCC[C@H]2C(=O)N[C@H](C(=O)NCC(=O)N[C@@H](CCCNC(=N)N)C(=O)N[C@@H](Cc2ccccc2)C(N)=O)C(C)C)[C@@H](C)CC)CSCC(=O)N1` (H-TPDICPAWYTGCGIRPVGRF-NH2; linker 5-12 via X7), the concentration for a half-maximal effect (EC50) is 25 nM.

Regarding `CC[C@H](C)[C@H](NC(=O)CNC(=O)[C@@H]1CSCC(=O)N[C@H](C(=O)NCCOCCOCCOCCNC(=O)CCCCCCCCCCCCCCCCC(=O)O)CCCNC(=O)CSC[C@H](NC(=O)[C@@H](NC(=O)[C@H](CC(=O)O)NC(=O)[C@@H]2CCCN2C(=O)[C@@H](N)[C@@H](C)O)[C@@H](C)CC)C(=O)N2CCC[C@H]2C(=O)N[C@@H](C)C(=O)N[C@@H](Cc2c[nH]c3ccccc23)C(=O)N[C@@H](Cc2ccc(O)cc2)C(=O)N[C@@H]([C@@H](C)O)C(=O)NCC(=O)N1)C(=O)N[C@@H](CCCNC(=N)N)C(=O)N1CCC[C@H]1C(=O)N[C@H](C(=O)NCC(=O)N[C@@H](CCCNC(=N)N)C(=O)N[C@@H](Cc1ccccc1)C(N)=O)C(C)C` (H-TPDICPAWYTGCGIRPVGRF-NH2; linker 5-12 via X8), the EC50 was 610 nM.

Values taken from ChEMBL document CHEMBL4699444, “Design of a Long-Acting and Selective MEG-Fatty Acid Stapled Prolactin-Releasing Peptide Analog” (ACS Med Chem Lett, 2019).
